{
  "source": "patent US6355619B1",
  "about": "“Peptide tumor cell growth inhibitors” (Board of Regents, The University of Texas System, priority 1996, dated 2002)",
  "key": {"[1]": {"test_system": "IL-8 receptors on neutrophils", "assay": "Inhibition of 125I-labeled IL-8 binding to human neutrophils", "details": "for Receptor 1 Bmax of IL-8, two-site model / Receptor 2 Bmax of IL-8, two-site model: binding isotherms, Lundon I", "procedure": "Therefore, in pursuing this aim, the present inventors assayed various other peptide compositions for IL-8 inhibitory activity by screening a library of 400 groups of hexapeptides. In these screening assays, ^125I-labeled interleukin-8 (10^−12 M) was mixed with 100 μM peptide, then added to neutrophils and incubated at 4° C. for 90 min. The bound radioactivity was separated from unbound by centrifugation through a dense cushion of a mixture of paraffin and silicon oils and the ^125I bound to neutrophils was counted in a gamma radiation spectrometer, allowing the results to be expressed as the percent of IL-8 binding which was inhibited.\nThe use of human subjects for acquisition of neutrophils was approved by the Institutional Review Board for human experimentation. For the preparation of neutrophils, human blood was anticoagulated with heparin for enzyme release studies and with 0.33% sodium citrate for other studies. For chemotactic and enzyme release studies neutrophils were separated by dextran sedimentation and erythrocyte lysis by the method of Boyum (Kohler and Milstein, 1975). For binding studies and cytotoxic studies, the neutrophils were further purified in gradients of Percoll (Pharmacia Fine Chemicals, Piscataway, N.J.) to a purity of 90-93% (Kohler and Milstein, 1975).\nRecombinant human IL-8 (72 amino acids; Pepro Tech Inc., Rocky Hill, N.J.) was radioactively labeled with ^125I by the chloramine T method of Hunter and Greenwood (Hunter and Greenwood, 1962). Binding studies were performed according to Besemer et al. (1989), as follows: Neutrophils in phosphate buffered saline pH 7.4 (PBS) containing 0.1% bovine serum albumin (BSA) were incubated with labeled ligand in the presence or absence of the peptide being tested for 90 min at 4° C. to reach equilibrium and then centrifuged at 12,000×g for 3 min in Beckman B microfuge (Beckman Instruments, Fullerton, Calif.), through a cushion consisting of a mixture of paraffin oil Fisher Scientific, Fair Lawn, N.J.) and silicon oil (Serva Co., N.Y., N.Y.). The pellet and supernatant were then counted in a gamma radiation spectrometer. The non-specific binding was estimated to measure the binding in the presence of 100-fold excess of non-labeled ligand. The binding constants were calculated using the computer programs Lundon I and Lundon II.\nIn these studies, a screening for inhibition was carried out at 100 μM concentration of the peptide being tested, with a 10^−12 M concentration of IL-8. In the first series of studies, twenty peptides were synthesized with the carboxyl-terminal residue of RRWWCX (SEQ ID NO:23) being changed to each of the standard protein amino acids in turn."}, "[2]": {"test_system": "Hs 294T melanoma cells", "assay": "Cell growth assay, Hs 294T", "type": "cell-based, human", "procedure": "FIG. 15A. The effect of Antileukinate on the growth of melanoma cells. Melanoma cell lines and a control liver cancer cell line (2×10^4 cells/well) in 500 μl were cultured in a 24 well tissue culture plate in the presence of various concentrations of Antileukinate for 3 d. The culture media were changed to fresh media containing the same concentration of Antileukinate every 24 hr during the incubation period. After incubation, the cells were collected and the cell number was counted using a hemocytometer. Hs 294 T cell line. Analysis of variance was used for multiple comparison.\nThe cell lines (2×10^4 cells/well) in 500 μl cell culture medium were grown in 24 well tissue culture plates. After the cells adhered to the plate, the supernatants were aspirated and 500 μl of media containing various concentrations of Antileukinate were added to the wells. The cells were cultured for period indicated in the text. The culture media were changed to fresh media every 24 hr. After incubation, the cells were detached with trypsin-EDTA solution (Life Technologies Inc., Gaithersburg, Md., containing 0.05% of trypsin and 0.53 mM of EDTA in Hanks Balanced Salt Solution without Ca^2+ and Mg^2+) and the cell number was counted using a hemocytometer."}, "[3]": {"test_system": "NCI-H292 (squamous cell carcinoma of lung)", "assay": "Growth of NCI-H292, cell count", "type": "cell-based", "details": "NCI-H292, 7 days, media replaced every 24 hour", "procedure": "(§1) FIG. 19. The effect of Antileukinate on growth of NCI-H292 (squamous cell carcinoma of lung). NCI-H292 cells were plated at a density of 5×10^3 cells in 24-well plate with growth medium. After the cells adhered to the plate, supernatants were aspirated and culture media containing various concentrations of Antileukinate were added to the wells. The media was replaced every 24 hour and the cells were cultured for 7 days. After incubation, cells were detatched with trypsin-EDTA and the cell number was counted using a hemocytometer. Cell number was decreased in a dose-dependent manner and there are significant differences from control at concentrations greater than, or equal to 50 μM of Antileukinate (p<0.05)."}, "[4]": {"test_system": "A549 (adenocarcinoma of lung)", "assay": "Growth of A549, cell count", "type": "cell-based", "details": "A549, 7 days, media replaced every 24 hours", "procedure": "as §1, with “20” for “19.”, “A549 (adenocarcinoma” for “NCI-H292 (squamous cell carcinoma”, “A549” for “NCI-H292”, “hours” for “hour”"}, "[5]": {"test_system": "A375P melanoma cells", "assay": "Tumor cell growth, A375P", "type": "cell-based"}, "[6]": {"test_system": "adenocarcinoma from stomach Hs746T", "assay": "Tumor cell growth, Hs746T", "type": "cell-based"}, "[7]": {"test_system": "RPMI-7951", "details": "16 hr", "description": "The cell lines (4×10^5 cells/well) in RPMI-1640 medium containing 10% fetal bovine serum were incubated with 10 μCi of Na2^51CrO4 (DuPont NEN Co.) for 60 min at 37° C. in a 24 well tissue culture plate. The cells were washed 3 times and then incubated in cell culture medium for 30 min at 37° C. to allow spontaneous lysis of marginally viable cells. […] The cells were cultured for 16 hr at 37° C. and then the radioactivity in the supernatants was counted in a gamma radiation spectrometer. Quadriplicate wells received cell culture medium alone or 2% SDS to determine spontaneous and maximum release, respectively. The percentage lysis was calculated by using the following formula: [formula]"}, "[8]": {"details": "+10 μM Ac-RRWWCR, binding inhibition curves, Lundon II"}},
  "note": "Like-named read-outs stand apart in the source and are kept apart here.",
  "data": [
    {"substance": "RRWWCR [Ac-RRWWCR-NH2]", "values": [
      {"measurement": "concentration at which IL-8 binding was suppressed significantly", "setting": "[1]; 1 nM 125I-labeled IL-8 (FIG. 5)", "value": 100, "unit": "nM"},
      {"measurement": "EC50", "setting": "[1]; 1 nM 125I-labeled IL-8, 90 min at 4° C., multiple replicates, read-out: average EC50 of the binding inhibition curve", "value": "13.7 ± 0.6", "unit": "µM"},
      {"measurement": "EC50", "setting": "[1]; 1 nM IL-8, FIG. 10, peptide premixed with ligand 15 min, read-out: EC50, inhibition of binding of IL-8 to neutrophils", "value": "~25", "unit": "µM"},
      {"measurement": "inhibition of IL-8 binding to neutrophils", "setting": "[1]; 10 μM peptide (FIG. 9)", "value": 20, "unit": "%"},
      {"measurement": "Receptor 1 Bmax of IL-8, two-site model", "setting": "[1]; 10 μM peptide", "value": "91.9 ± 9.2", "unit": "fmole/10^6 cells"},
      {"measurement": "Receptor 2 Bmax of IL-8, two-site model", "setting": "[1]; 10 μM peptide", "value": "90.9 ± 9.7", "unit": "fmole/10^6 cells"},
      {"measurement": "IL-8 binding inhibition at lower peptide concentration (FIG. 1)", "setting": "[1]; 20 μM peptide", "value": "most potent inhibitor"},
      {"measurement": "Receptor 1 Bmax of IL-8, two-site model", "setting": "[1]; 20 μM peptide", "value": "90.9 ± 27.3", "unit": "fmole/10^6 cells"},
      {"measurement": "Receptor 2 Bmax of IL-8, two-site model", "setting": "[1]; 20 μM peptide", "value": "76.2 ± 11.8", "unit": "fmole/10^6 cells"},
      {"measurement": "Receptor 1 Bmax of IL-8, two-site model", "setting": "[1]; 40 μM peptide", "value": "82.0 ± 25.4", "unit": "fmole/10^6 cells"},
      {"measurement": "Receptor 2 Bmax of IL-8, two-site model", "setting": "[1]; 40 μM peptide", "value": "44.2 ± 30.0", "unit": "fmole/10^6 cells"},
      {"measurement": "% INHIB. (IL-8 binding to neutrophils)", "setting": "[1]; 100 μM peptide, 10^−12 M IL-8, hexamer RRWWCX series, first screen", "value": 112.2, "unit": "%"},
      {"measurement": "Receptor 1 Bmax of IL-8", "setting": "[1]; [8]", "value": "11.2 ± 0.8", "unit": "fmole/10^6 cells"},
      {"measurement": "Receptor 2 Bmax of IL-8", "setting": "[1]; [8]", "value": "75.6 ± 0.7", "unit": "fmole/10^6 cells"},
      {"measurement": "% INHIB. (IL-8 binding to neutrophils)", "setting": "[1]; first set of heptamer studies, D-amino acid RRWWCRX series, methodology of Example I", "value": 112.2, "unit": "%"},
      {"measurement": "effectiveness relative to the non-acetylated peptide", "setting": "[1]; inhibiting IL-8 binding to neutrophils", "value": "almost twice as effective"},
      {"measurement": "IC50", "setting": "[1]; read-out: IC50, binding of radiolabeled IL-8", "value": 13.7, "unit": "µM"},
      {"measurement": "Ki", "setting": "[1]; specific binding of 125I-labeled IL-8, read-out: apparent K1 (estimated, purely competitive single site model)", "value": "~10", "unit": "µM"},
      {"measurement": "% Binding Inhibition (IL-8 binding to neutrophils)", "setting": "[1]; synthetic peptides, standard assay (Table 6)", "value": "98.6 ± 0.9", "unit": "%"},
      {"measurement": "cell growth at 100 μM peptide", "setting": "[2]; 100 μM", "value": "suppressed the cell growth almost completely"},
      {"measurement": "peptide concentration significantly inhibiting growth", "setting": "[2]; 72 hr", "value": 10, "unit": "µM"},
      {"measurement": "EC50", "setting": "[2]; 72 hr, medium changed every 24 hr, read-out: ED50, cell growth inhibition", "value": 18, "unit": "µM"},
      {"measurement": "concentrations with significant difference in cell number from control (p<0.05)", "setting": "[3]", "value": "≥ 50", "unit": "µM"},
      {"measurement": "concentrations with significant difference in cell number from control (p<0.05)", "setting": "[4]", "value": "≥ 50", "unit": "µM"},
      {"measurement": "effect on cell growth", "setting": "[5]", "value": "suppresses the growth"},
      {"measurement": "effect on cell growth", "setting": "[6]", "value": "inhibits growth"},
      {"measurement": "% cell lysis", "setting": "[7]; RPMI-7951, 1 μM peptide", "value": "−0.8 ± 2.2", "unit": "%"},
      {"measurement": "% cell lysis", "setting": "[7]; RPMI-7951, 5 μM peptide", "value": "−2.6 ± 3.7", "unit": "%"},
      {"measurement": "% cell lysis", "setting": "[7]; RPMI-7951, 20 μM peptide", "value": "−3.4 ± 6.3", "unit": "%"},
      {"measurement": "% cell lysis", "setting": "[7]; RPMI-7951, 100 μM peptide", "value": "6.8 ± 11.1", "unit": "%"}
    ]}
  ]
}
